Test results taken from US10238593B2, “System and method for preventing alopecia” (FOLLEA INTERNATIONAL, priority 2014, dated 2019).

Legend:
scalp hair follicles = assay: Epilation force measured with trichotillometer (Example 5); format: in vivo, human; details: average of 10 subjects
Experimental: To evaluate the effect of a topically applied α1-AR agonist on the force required to pluck hairs from the scalp, a hand-held spring dynamometer, or “trichotillometer” was used (8). The trichotillometer records the maximum force threshold, in grams, required to pluck a single hair from the scalp; the performance and statistical variance of the instrument have been reported previously (8-10). Force measurements were performed using the trichotillometer on 10 subjects. The frontal area of scalp was divided into two 8×10 cm2 areas. On the right side 0.5 mL of a placebo vehicle was applied. […] After 45 minutes, ten hairs were plucked from each of the target areas with the trichotillometer.

scalp hair = assay: Hair shedding: hairs removed with brush, 4-day protocol (Example 5); format: in vivo, human
Text: Patients: Fifteen female subjects, ages 18-40, were included in the study. Subjects were recruited based on their frequent use of traumatic hair care practices, such as, tight braids, head scarves, ponytails, extensions, hair rollers, hair weaves and heated styling appliances such as blow dryers, flat irons, heat setters and curling irons. Subjects with uncontrolled hypertension, that were pregnant or breastfeeding, had been diagnosed with pattern hair loss or with other hair loss in conjunction with female pattern hair loss were excluded from the study. […] Piloerection and blanching were visible after 30 minutes; the effect lasted for approximately 2-3 hours.
Hair Shedding: To measure hair loss during cosmetic procedures, a 4-day protocol was designed. On the first day patients were instructed to wash their hair and use styling products and procedures as they normally would. On the second day, patients were instructed not to wash their hair and to apply 0.5 mL of a placebo solution, containing a vehicle only, on the frontal area of the scalp in an 8×10 cm2 target area. Patients were instructed to wait 45 minutes, after which, they brushed their hair 20 times from the front of the scalp to the bottom of head using a new brush. After the procedure, the brushes were sealed in a plastic bag. […] After each clinical procedure, the investigator counted the hairs collected on each brush. […]

With `CNC[C@H](O)c1cccc(O)c1` [phenylephrine] the “AVERAGE increase of epilation force threshold vs placebo” value (scalp hair follicles) was “approximately 172%”, the “subjects with reduced shedding compared to placebo” value (scalp hair; 15 female subjects, blinded study) was 80% and the “AVERAGE reduction in hair loss vs placebo” value (scalp hair; average of 15 subjects) was “approximately 42%”.
